From patent US20210260141A1, “MSC- AND EXOSOME-BASED IMMUNOTHERAPY” (EXOSTEM BIOTEC LTD., priority 2018, published 2021)

B1: miR-34: microRNA; pre-miR SEQ ID NO: 10, mature 5p SEQ ID NO: 11, 3p SEQ ID NO: 12 (nucleic acid, listed as Homo sapiens)
chain: UGGCAGUGUCUUAGCUGGUUGUUGUGAGCAAUAGUAAGGAAGCAAUCAGCAAGUAUACUGCCCUA
modifications: expressed or natural sequence

How the values were obtained:
Type in all cases: cell-based
3′ UTR of PD-L1 = experiment: PD-L1 3′ UTR luciferase reporter in GSCs cocultured with MSCs or treated with their exosomes; conditions: pre-miR expressed in CH-, AD- and UC-MSCs, trans-well coculture with GSCs
glioma stem cells (GSCs) = experiment: self-renewal of GSCs (secondary neurosphere formation) after coculture with MSCs or addition of their exosomes; conditions: trans-well coculture
PD-1 3′ UTR = PD-1 3′ UTR luciferase reporter in HEK293 cells; conditions: miR transfected in CH-MSCs; same whether cocultured or exosomes added
Protocol: PD-L1 is only half of the immune surveillance axis, its receptor PD-1 is expressed on immune cells and is required for cancer cell immune inhibition. […] CH-MSCs were also transfected with miR-124, miR-34, miR-30b and a combination of all three and then PD-1 expression was assessed. […] The effect was the same whether cells were cocultured, or whether exosomes were added. miR-34 has already been reported to target PD-L1, thus this miR and miR-124 are both effective at targeting both sides of the PD-L1/PD-1 axis.

[1] = miR expressed in CH- and UC-MSCs

| Molecule | luciferase expression (PD-L1 reporter) (3′ UTR of PD-L1) | effect on self-renewal of GSCs (glioma stem cells (GSCs); miR expressed in AD-MSCs) | effect on self-renewal of GSCs (glioma stem cells (GSCs); [1]) | effect on PD-1 reduction (luciferase reporter) (PD-1 3′ UTR) |
| --- | --- | --- | --- | --- |
| miR-29c: microRNA; pre-miR SEQ ID NO: 4, mature 5p SEQ ID NO: 5, 3p SEQ ID NO: 6 (ACCGAUUUCUCCUGGUGUUCAGAGUCUGUUUUUGUCUAGCACCAUUUGAAAUCGGUUA; expressed or natural sequence; listed as Homo sapiens) | decreased luciferase expression | more pronounced effect | negligible effect | – |
| miR-30b: microRNA; pre-miR SEQ ID NO: 13, mature 5p SEQ ID NO: 14, 3p SEQ ID NO: 15 (UGUAAACAUCCUACACUCAGCUGUAAUACAUGGAUUGGCUGGGAGGUGGAUGUUUACUUC; expressed or natural sequence; listed as Homo sapiens) | – | – | – | enhanced the PD-1 reduction |
| miR-378: microRNA; pre-miR SEQ ID NO: 32, mature 5p SEQ ID NO: 33, 3p SEQ ID NO: 34 (CUCCUGACUCCAGGUCCUGUGUGUUACCUAGAAAUAGCACUGGACUUGGAGUCAGAAGGC; expressed or natural sequence; listed as Homo sapiens) | decreased luciferase expression | more pronounced effect | negligible effect | – |
| B1 | – | – | – | enhanced the PD-1 reduction |
